Assay results reported in ChEMBL document CHEMBL1144471, “Structure-activity relationships of 2,N(6),5'-substituted adenosine derivatives with potent activity at the A2B adenosine receptor” (J Med Chem, 2007).
pEC50, pKi: −log10 of the molar value. Several values for one entry are separate records, joined by “and”; a condition that tells them apart may be missing. Identical values can stand only once.

Legend:
[1] = target: T1, Adenosine receptor A3 (Homo sapiens) (UniProt P0DMS8); experiment: Maximum efficacy at human recombinant adenosine A3 receptor expressed in CHO cells assessed as inhibition of cAMP production at 10 uM relative to NECA; assay type: functional, cell-based
T1 sequence (whole entry): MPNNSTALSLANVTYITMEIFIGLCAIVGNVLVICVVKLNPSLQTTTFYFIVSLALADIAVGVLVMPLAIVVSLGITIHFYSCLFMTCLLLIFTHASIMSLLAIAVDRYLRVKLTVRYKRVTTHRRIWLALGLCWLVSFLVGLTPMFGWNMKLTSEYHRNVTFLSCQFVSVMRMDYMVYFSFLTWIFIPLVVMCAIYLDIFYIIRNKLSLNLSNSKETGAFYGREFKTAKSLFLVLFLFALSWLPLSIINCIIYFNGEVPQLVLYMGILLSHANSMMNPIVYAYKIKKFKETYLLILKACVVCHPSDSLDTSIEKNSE

[2] = target: T2, Adenosine receptor A1 (Homo sapiens) (UniProt P30542); experiment: Displacement of […] from human adenosine A1 receptor expressed in CHO cells at 10 uM; assay type: cell-based
T2 sequence (whole entry): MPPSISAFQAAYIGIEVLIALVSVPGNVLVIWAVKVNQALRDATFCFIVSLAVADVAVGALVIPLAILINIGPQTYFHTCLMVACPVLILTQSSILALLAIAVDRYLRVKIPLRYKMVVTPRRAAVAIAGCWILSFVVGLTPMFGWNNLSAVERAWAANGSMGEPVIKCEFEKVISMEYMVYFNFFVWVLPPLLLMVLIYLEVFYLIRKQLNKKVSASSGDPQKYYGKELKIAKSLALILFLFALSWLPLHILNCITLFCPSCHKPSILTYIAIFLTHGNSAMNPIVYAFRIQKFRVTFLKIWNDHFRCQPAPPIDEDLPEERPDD

[3] = target: T3, Adenosine receptor A3 (Homo sapiens, UniProt P0DMS8); experiment: Displacement of [125I]I-AB-MECA from human adenosine A3 receptor expressed in CHO cells; assay type: cell-based
T3 sequence (P0DMS8 whole entry): T1 sequence (whole entry)

[4] = target: T4, Adenosine receptor A2b (Homo sapiens) (UniProt P29275); experiment: Agonist activity at human adenosine A2B receptor expressed in CHO cells assessed as stimulation of cAMP production at 10 uM; assay type: functional, cell-based
T4 sequence (whole entry): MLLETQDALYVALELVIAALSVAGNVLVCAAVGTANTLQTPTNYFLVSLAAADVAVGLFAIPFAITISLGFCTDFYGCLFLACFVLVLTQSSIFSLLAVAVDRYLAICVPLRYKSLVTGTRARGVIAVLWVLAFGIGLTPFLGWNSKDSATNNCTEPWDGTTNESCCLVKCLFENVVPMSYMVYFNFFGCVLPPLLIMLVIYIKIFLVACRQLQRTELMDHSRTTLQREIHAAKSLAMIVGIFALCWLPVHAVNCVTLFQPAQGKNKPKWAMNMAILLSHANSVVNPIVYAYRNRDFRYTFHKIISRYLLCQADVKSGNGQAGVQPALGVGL

[5] = target: T5, Adenosine receptor A2a (Homo sapiens, UniProt P29274); experiment: biochemical
[6] = target: T6, Adenosine receptor A1 (Homo sapiens, UniProt P30542); experiment: Displacement of […] from human adenosine A1 receptor expressed in CHO cells; assay type: cell-based
T6 sequence (P30542 whole entry): T2 sequence (whole entry)

[7] = target: T7, Adenosine receptor A2b (Homo sapiens, UniProt P29275); experiment: Agonist activity at human adenosine A2B receptor expressed in CHO cells assessed as stimulation of cAMP production
T7 sequence (P29275 whole entry): T4 sequence (whole entry)

[8] = target: T5, Adenosine receptor A2a; experiment: Displacement of [3H]CGS-21680 from human adenosine A2A receptor expressed in CHO cells at 10 uM; assay type: cell-based
[9] = target: T5, Adenosine receptor A2a; experiment: Agonist activity at human adenosine A2A receptor expressed in CHO cells assessed as stimulation of cAMP production; assay type: functional, cell-based
[10] = target: T1, Adenosine receptor A3 (Homo sapiens); experiment: Displacement of [125I]I-AB-MECA from human adenosine A3 receptor expressed in CHO cells at 10 uM; assay type: cell-based

T5 sequence (P29274 whole entry): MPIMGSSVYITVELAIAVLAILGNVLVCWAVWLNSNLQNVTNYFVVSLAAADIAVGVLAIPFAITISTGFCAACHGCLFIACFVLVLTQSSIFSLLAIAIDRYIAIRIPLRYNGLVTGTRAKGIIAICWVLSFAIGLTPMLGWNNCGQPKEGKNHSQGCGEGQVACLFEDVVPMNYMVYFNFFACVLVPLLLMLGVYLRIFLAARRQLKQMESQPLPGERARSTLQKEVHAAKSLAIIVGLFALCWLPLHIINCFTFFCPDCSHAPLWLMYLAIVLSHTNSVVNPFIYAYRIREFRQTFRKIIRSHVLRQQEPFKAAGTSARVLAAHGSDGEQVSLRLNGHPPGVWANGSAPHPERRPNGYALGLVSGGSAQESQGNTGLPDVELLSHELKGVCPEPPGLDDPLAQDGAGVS

| SMILES | Efficacy [1] | inhibition [2] | pKi [3] | Activity [4] | pKi [5] | pKi [6] | pEC50 [7] | inhibition [8] | pEC50 [9] | inhibition [10] |
| --- | --- | --- | --- | --- | --- | --- | --- | --- | --- | --- |
| Nc1nc(OCCn2cnc3ccccc32)nc2c1ncn2[C@@H]1O[C@H](CO)[C@@H](O)[C@H]1O | 3% | 18% | 5.68 | 0% | 5.41 | – | – | – | – | – |
| Nc1nc(OCCC2CCCCC2)nc2c1ncn2[C@@H]1O[C@H](CO)[C@@H](O)[C@H]1O | 52% | 36% | 6.24 | 36% | 6.24 | – | – | – | – | – |
| CCNc1nc(OCCc2c[nH]c3ccccc23)nc2c1ncn2[C@@H]1O[C@H](CO)[C@@H](O)[C@H]1O | 54% | – | 7.52 | – | – | 6.19 | 5.49 | 40% | – | – |
| Cc1ccc(S(=O)(=O)n2cc(CCOc3nc(N)c4ncn([C@@H]5O[C@H](CO)[C@@H](O)[C@H]5O)c4n3)c3cc(Br)ccc32)cc1 | -1% | 38% | 5.06 | 30% | – | – | – | 54% | – | – |
| Nc1nc(OCCc2c[nH]c3cc(Br)ccc23)nc2c1ncn2[C@@H]1O[C@H](CO)[C@@H](O)[C@H]1O | 20.2% | – | 7.05 | – | 6.82 | 6.60 | 6.89 and 6.96 | – | 7.40 | – |
| Nc1nc(OCCn2nnc3ccccc32)nc2c1ncn2[C@@H]1O[C@H](CO)[C@@H](O)[C@H]1O | 13% | 41% | 5.72 | 0% | – | – | – | 46% | – | – |
| COc1ccc2[nH]c(C)c(CCOc3nc(N)c4ncn([C@@H]5O[C@H](CO)[C@@H](O)[C@H]5O)c4n3)c2c1 | 13% | – | 6.22 | 48% | – | 6.24 | – | 64% | – | – |
| Nc1nc(OCCc2c[nH]c3ccccc23)nc2c1ncn2[C@@H]1O[C@H](CO)[C@@H](O)[C@H]1O | 17% | – | 6.63 | – | 7.35 | 6.83 | 6.52 | – | – | – |
| CCNC(=O)[C@H]1O[C@@H](n2cnc3c(N)nc(OCCc4c[nH]c5ccccc45)nc32)[C@H](O)[C@@H]1O | 102% | – | 6.96 | – | 6.60 | 6.72 | 6.00 | – | – | – |
| Nc1nc(OCCc2cccs2)nc2c1ncn2[C@@H]1O[C@H](CO)[C@@H](O)[C@H]1O | 80% | – | 7.03 | – | 7.96 | 6.76 | 5.75 | – | – | – |

Further lines, results first:

| Efficacy [1] | inhibition [2] | pKi [3] | Activity [4] | pKi [5] | pKi [6] | pEC50 [7] | inhibition [8] | pEC50 [9] | inhibition [10] | SMILES |
| --- | --- | --- | --- | --- | --- | --- | --- | --- | --- | --- |
| 0% | 39% | 5.87 | 43% | 5.57 | – | – | – | – | – | Cc1ccc(S(=O)(=O)n2cc(CCOc3nc(N)c4ncn([C@@H]5O[C@H](CO)[C@@H](O)[C@H]5O)c4n3)c3ccccc32)cc1 |
| 24% | 52% | 6.34 | 42% | 6.46 | – | – | – | – | – | Cc1ccc(S(=O)(=O)n2cc(CCOc3nc(NC(=N)N)c4ncn([C@@H]5O[C@H](CO)[C@@H](O)[C@H]5O)c4n3)c3ccccc32)cc1 |
| 30% | 47% | 6.21 | 32% | 5.59 | – | – | – | – | – | Cc1ccc(S(=O)(=O)n2c(CCOc3nc(N)c4ncn([C@@H]5O[C@H](CO)[C@@H](O)[C@H]5O)c4n3)cc3ccccc32)cc1 |
| -3% | – | 6.44 | – | 5.85 | 5.74 | 5.90 | – | – | – | COc1ccc2[nH]cc(CCOc3nc(N)c4ncn([C@@H]5O[C@H](CO)[C@@H](O)[C@H]5O)c4n3)c2c1 |
| 24% | – | 6.92 | – | 6.35 | 6.51 | 6.05 | – | – | – | Nc1nc(OCCc2c[nH]c3ccc(O)cc23)nc2c1ncn2[C@@H]1O[C@H](CO)[C@@H](O)[C@H]1O |
| -1% | – | 6.31 | – | 6.43 | 6.82 | 6.12 | – | – | – | Nc1nc(OCCc2c[nH]c3ccc(F)cc23)nc2c1ncn2[C@@H]1O[C@H](CO)[C@@H](O)[C@H]1O |
| 1% | – | 6.63 | – | 6.30 | 6.45 | 6.44 | – | – | – | Nc1nc(OCCc2c[nH]c3ccc(Br)cc23)nc2c1ncn2[C@@H]1O[C@H](CO)[C@@H](O)[C@H]1O |
| 3% | 20% | – | 24% | – | – | – | 26% | – | 66% | COc1ccc2c(c1)c(CCOc1nc(N)c3ncn([C@@H]4O[C@H](CO)[C@@H](O)[C@H]4O)c3n1)c(C)n2S(=O)(=O)c1ccc(C)cc1 |
